Measurements reported in patent publication US20180008573A1, “METHODS AND COMPOSITIONS FOR REDUCING DAMAGE ASSOCIATED WITH OXIDATIVE PHOSPHORYLATION” (USANA Health Sciences, Inc., priority 2016, published 2018).

What was measured:
human PPARα = target: T1, human PPARα (Homo sapiens, UniProt Q07869); assay: PPARα agonist reporter assay (Gal4 hybrid receptor, luciferase, CHO cells); format: cell-based
T1 construct: expressed in transfected cells; host or cells: CHO
T1 sequence (Q07869 239-466 limits assumed): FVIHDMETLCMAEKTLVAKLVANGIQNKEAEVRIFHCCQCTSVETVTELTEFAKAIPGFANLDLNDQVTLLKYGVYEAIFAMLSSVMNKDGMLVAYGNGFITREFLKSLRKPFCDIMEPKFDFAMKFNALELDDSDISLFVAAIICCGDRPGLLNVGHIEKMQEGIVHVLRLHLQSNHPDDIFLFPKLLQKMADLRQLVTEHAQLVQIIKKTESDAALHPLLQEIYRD

human PPARδ = target: T2, human PPARδ (Homo sapiens, UniProt Q03181); assay: PPARδ agonist reporter assay (Gal4 hybrid receptor, luciferase, CHO cells); format: cell-based
T2 construct: expressed in transfected cells; host or cells: CHO
T2 sequence (Q03181 211-439 limits assumed): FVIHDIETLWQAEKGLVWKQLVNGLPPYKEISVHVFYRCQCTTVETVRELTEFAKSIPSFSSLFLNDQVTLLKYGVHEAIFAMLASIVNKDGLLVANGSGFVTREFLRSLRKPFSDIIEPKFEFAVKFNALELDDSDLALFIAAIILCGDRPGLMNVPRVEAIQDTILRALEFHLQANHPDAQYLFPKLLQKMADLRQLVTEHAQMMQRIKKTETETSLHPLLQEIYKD

human PPARγ = target: T3, human PPARγ (Homo sapiens, UniProt P37231); assay: PPARγ agonist reporter assay (Gal4 hybrid receptor, luciferase, CHO cells); format: cell-based
T3 construct: expressed in transfected cells; host or cells: CHO
T3 sequence (P37231 238-503 limits assumed): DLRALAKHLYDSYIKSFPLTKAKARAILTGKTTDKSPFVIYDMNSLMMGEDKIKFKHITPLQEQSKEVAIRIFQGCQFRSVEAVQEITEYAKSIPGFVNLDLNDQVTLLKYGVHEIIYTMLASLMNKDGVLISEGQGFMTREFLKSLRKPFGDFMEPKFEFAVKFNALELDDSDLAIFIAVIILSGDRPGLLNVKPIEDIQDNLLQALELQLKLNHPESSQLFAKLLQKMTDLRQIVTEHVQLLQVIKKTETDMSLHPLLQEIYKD

NF-κB reporter cells = assay: Live cell multiplex assay in the NF-κB antagonist assay; format: cell-based, human
Protocol: A vehicle control was prepared.

C. elegans strain CB5586 = assay: C. elegans phenotypic lifespan screening (Kaplan-Meier, Log-Rank, Fisher's Exact Test); format: in vivo; conditions: for restricted mean lifespan, # of Days: DMSO control 13.23
Protocol: Dilutions of the test formulations were applied to individual populations of C. elegans and the lifespan of each population was monitored. Any changes in the lifespan of an individual population compared to a control population were recorded and correlated to the respective test formulation (N356 or N357) and the respective dilution (0.1 mg/ml, 1 mg/ml, and 10 mg/ml).
The […] and N357 formulations were each prepared as individual 100 mg/ml stock solutions in dimethyl sulfoxide (DMSO). Serial dilutions of each stock solution were then prepared at 0.1 mg/ml, 1 mg/ml, and 10 mg/ml in DMSO. Control solutions of DMSO only were also prepared. Synchronous aged adult populations of C.elegans strain CB5586 worms were prepared. The CB5586 strain comprises a pharyngeal GFP (green fluorescent protein) tag and a mutation in the bus-5 gene. The pharyngeal GFP tag allows for fluorescent images of the worm populations to be taken. The mutation in the bus-5 gene causes the loss of normal cuticle antigens that permits the cuticle of the worms to become permeable to the test formulations and allow direct uptake of the test formulations to avoid interaction of the test formulations with protective mechanisms of the gut channel. Each serial dilution of each test formulation was added to a separate population of the prepared worms. The control solutions were also added to separate populations of the prepared worms. The populations of the prepared worms were then maintained on standard nematode growth media (NGM) agar plates at 20° C. with sufficient food (Escherichia coli strain OP-50).
Each worm population was then monitored by fluorescent imaging to determine the number of living and dead worms as a function of time. The fluorescent imaging was analyzed by software that recognized and counted worms based on their fluorescent intensity compared to background fluorescence. […] The ability to distinguish between living and dead worms allowed the number of living worms and cumulative number of dead worms to be monitored against time. Worm populations from a selection of fluorescent images were manually checked to verify that the software had accurately counted the number of living and dead worms.
The counts of the living and dead worms as a function of time were then analyzed for each of the worm populations and used to prepare Kaplan-Meier survival curves and associated statistics for each of the worm populations. […] The median lifespan is shown as the length of time after the last mitotic division that 50% of the test population remains viable when compared to the control population. The maximum lifespan extension is shown as the length of time after the last mitotic division that 5% of the test population remains viable when compared to the control population.
The counts of the living and dead worms as a function of time and the Kaplan-Meier survival curves and the associated statistics were then analyzed for each of the worm populations. The analysis included determining mean and median lifespan. The analysis included a non-parametric test, the Log-Rank test, that compares two survival functions for the overall lifespan assay and provides a reliable p-value summarizing the whole experiment. The analysis also included Fisher's Exact Test that calculated the significance of survival function comparisons at multiple specific time points throughout the experiment, rather than for the overall lifespan. The results of the analysis are shown below in Tables 10-17.
Phenotypic screening was carried out as described in EXAMPLE 2 for various individual compounds of the N357 formulation. […] Alpha lipoic acid was sourced from PureBulk USA as a racemic mix of R and S stereoisomers and was assigned a sample number of N198. Hesperidin was sourced from Sigma Aldrich at ≧80% purity and was assigned a sample number of N347. […]

## O=C(O)CCCCC1CCSS1 (racemic) [Alpha lipoic acid, alpha lipoic acid]
Human PPARα; 1.42 μg/ml active ingredient
  PPARα Fold-Activation: 1.4 fold
Human PPARα; 4.25 μg/ml active ingredient
  PPARα Fold-Activation: 1.3 fold
Human PPARα; 12.7 μg/ml active ingredient
  PPARα Fold-Activation: 1.2 fold
Human PPARα; 38.23 μg/ml active ingredient
  PPARα Fold-Activation: 1.5 fold
Human PPARα; 114.70 μg/ml active ingredient
  PPARα Fold-Activation: 2.3 fold
Human PPARα; at the concentrations tested
  agonist activity against human PPARα: very low-level agonist activity
Human PPARδ; 1.42 μg/ml active ingredient
  PPARδ Fold-Activation: 1.5 fold
Human PPARδ; 4.25 μg/ml active ingredient
  PPARδ Fold-Activation: 1.1 fold
Human PPARδ; 12.7 μg/ml active ingredient
  PPARδ Fold-Activation: 0.80 fold
Human PPARδ; 38.23 μg/ml active ingredient
  PPARδ Fold-Activation: 0.52 fold
Human PPARδ; 114.70 μg/ml active ingredient
  PPARδ Fold-Activation: 0.29 fold
Human PPARγ; 1.42 μg/ml active ingredient
  PPARγ Fold-Activation: 1.1 fold
Human PPARγ; 4.25 μg/ml active ingredient
  PPARγ Fold-Activation: 1.1 fold
Human PPARγ; 12.7 μg/ml active ingredient
  PPARγ Fold-Activation: 1.3 fold
Human PPARγ; 38.23 μg/ml active ingredient
  PPARγ Fold-Activation: 1.4 fold
Human PPARγ; 114.70 μg/ml active ingredient
  PPARγ Fold-Activation: 3.4 fold
Human PPARγ; at the concentrations tested
  agonist activity against human PPARγ: very low-level agonist activity
Human PPARγ; in the mixture
  induction concentration (PPARγ): 1.22 µg/mL
Human PPARγ; used alone
  induction concentration (PPARγ): 114.8 µg/mL
NF-κB reporter cells; 1.42 μg/ml active ingredient
  NF-κB % Live Cell: 100%
NF-κB reporter cells; 4.25 μg/ml active ingredient
  NF-κB % Live Cell: 104%
NF-κB reporter cells; 12.7 μg/ml active ingredient
  NF-κB % Live Cell: 102%
NF-κB reporter cells; 38.23 μg/ml active ingredient
  NF-κB % Live Cell: 104%
NF-κB reporter cells; 114.70 μg/ml active ingredient
  NF-κB % Live Cell: 105%
C. elegans strain CB5586; 0.1 mg/ml
  Statistically Significant Result (lifespan vs. DMSO control): Statistically significant increase
  extension of lifespan: about 12.5%
  population age in days at 25% mortality: 14 days
  population age in days at 50% mortality: 16 days
  population age in days at 75% mortality: 18 days
  restricted mean lifespan, # of Days: 14.89 days
C. elegans strain CB5586; 0.1 mg/ml and 10 mg/ml tested
  effect on chronological lifespan: significant positive and dose dependent increase of chronological lifespan
C. elegans strain CB5586; 0.1 mg/ml vs. DMSO control
  % Change in Mean Lifespan: +12.5%
C. elegans strain CB5586; 10 mg/ml
  Statistically Significant Result (lifespan vs. DMSO control): Statistically significant increase
  extension of lifespan: about 12.5%
  population age in days at 25% mortality: 14 days
  population age in days at 50% mortality: 16 days
  population age in days at 75% mortality: 18 days
  restricted mean lifespan, # of Days: 14.85 days
C. elegans strain CB5586; 10 mg/ml vs. DMSO control
  % Change in Mean Lifespan: +12.5%
